In publication PMC7012919, “TRPM7 contributes to progressive nephropathy” (Scientific Reports, 2020) one finds IC50 data, which are given here for 1 compound.

For this assay, the target named is TRPM7 (Rattus norvegicus, UniProt Q925B3). The assay can be described thus: whole-cell patch clamp of endogenous TRPM7 currents in NRK-52E and NRK-49F cells ([…] complete block); IC50 from Fura-2 Mn2+ quench in NRK-52E cells. The assay is classed as cell-based. For orientation: Patch clamp records ionic current or voltage across a cell membrane.

Usually IC50 stands for the concentration at which inhibition is half-maximal.

Sequence of TRPM7 (Q925B3 whole entry): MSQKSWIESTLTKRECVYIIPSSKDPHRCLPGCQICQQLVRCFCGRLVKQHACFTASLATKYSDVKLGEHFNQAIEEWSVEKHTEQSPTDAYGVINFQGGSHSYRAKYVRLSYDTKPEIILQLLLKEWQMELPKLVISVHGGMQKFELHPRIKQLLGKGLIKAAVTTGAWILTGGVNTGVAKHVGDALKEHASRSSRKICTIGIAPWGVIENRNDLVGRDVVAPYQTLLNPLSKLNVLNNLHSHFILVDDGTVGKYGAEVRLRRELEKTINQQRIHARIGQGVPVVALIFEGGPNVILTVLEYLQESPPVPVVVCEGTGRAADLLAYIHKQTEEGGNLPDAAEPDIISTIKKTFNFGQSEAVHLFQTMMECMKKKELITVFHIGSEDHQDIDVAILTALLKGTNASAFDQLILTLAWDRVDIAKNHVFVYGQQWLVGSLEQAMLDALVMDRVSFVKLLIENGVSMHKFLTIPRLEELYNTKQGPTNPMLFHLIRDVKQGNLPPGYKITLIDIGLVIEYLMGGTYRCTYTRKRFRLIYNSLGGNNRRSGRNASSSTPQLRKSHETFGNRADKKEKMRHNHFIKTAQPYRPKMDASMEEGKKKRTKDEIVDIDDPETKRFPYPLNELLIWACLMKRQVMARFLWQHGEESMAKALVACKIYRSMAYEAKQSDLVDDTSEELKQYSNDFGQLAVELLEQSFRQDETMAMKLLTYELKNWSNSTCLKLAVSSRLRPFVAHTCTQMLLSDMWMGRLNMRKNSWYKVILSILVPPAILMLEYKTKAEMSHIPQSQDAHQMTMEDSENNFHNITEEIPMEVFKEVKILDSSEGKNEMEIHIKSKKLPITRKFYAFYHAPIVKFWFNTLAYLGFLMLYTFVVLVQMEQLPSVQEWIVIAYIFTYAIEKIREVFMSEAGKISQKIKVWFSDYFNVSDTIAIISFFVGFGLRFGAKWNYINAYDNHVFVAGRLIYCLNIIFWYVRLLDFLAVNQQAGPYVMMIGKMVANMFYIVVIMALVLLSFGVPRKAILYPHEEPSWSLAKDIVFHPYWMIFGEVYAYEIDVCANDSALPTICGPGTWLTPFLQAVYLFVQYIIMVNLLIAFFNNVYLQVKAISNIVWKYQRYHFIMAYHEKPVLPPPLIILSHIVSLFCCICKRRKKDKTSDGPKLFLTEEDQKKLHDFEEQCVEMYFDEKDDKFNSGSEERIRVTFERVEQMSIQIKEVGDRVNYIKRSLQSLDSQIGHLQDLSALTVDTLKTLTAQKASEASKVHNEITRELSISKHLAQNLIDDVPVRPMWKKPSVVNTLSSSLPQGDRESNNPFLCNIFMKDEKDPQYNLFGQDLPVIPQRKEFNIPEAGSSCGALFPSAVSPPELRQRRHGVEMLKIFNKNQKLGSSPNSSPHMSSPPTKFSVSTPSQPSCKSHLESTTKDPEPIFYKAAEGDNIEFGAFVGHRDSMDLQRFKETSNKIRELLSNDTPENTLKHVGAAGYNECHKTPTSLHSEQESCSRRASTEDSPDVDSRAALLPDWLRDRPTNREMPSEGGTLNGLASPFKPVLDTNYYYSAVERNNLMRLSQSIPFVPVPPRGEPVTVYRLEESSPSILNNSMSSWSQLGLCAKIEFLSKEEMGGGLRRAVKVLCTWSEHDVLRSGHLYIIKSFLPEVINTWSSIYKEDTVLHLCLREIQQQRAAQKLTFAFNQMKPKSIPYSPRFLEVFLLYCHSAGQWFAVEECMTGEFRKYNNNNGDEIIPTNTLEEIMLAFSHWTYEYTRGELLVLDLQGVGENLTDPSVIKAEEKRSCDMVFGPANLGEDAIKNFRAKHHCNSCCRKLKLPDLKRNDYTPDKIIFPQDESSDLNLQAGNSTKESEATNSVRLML

`c1ccc2c(c1)CCC[C@H]2Nc1nc2ccccc2[nH]1` [NS8593] registered an IC50 of 16 ± 3 µM.
